Some test systems named below: UACC-62 melanoma; SNB-75 CNS; LOX IMVI melanoma; NCI-H23 lung; SF-268 CNS; SF-539 CNS; CCRF-CEM leukemia; A498 renal; OVCAR-8 ovarian; MCF7 breast.
Common to all, as to experiment: inhibition of tumour cell growth, NCI panel, 48 h

Each structure is given as a SMILES string.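 A five-concentration, 48-hour dose response in 96-well plates underlies each endpoint, interpolated linearly between surrounding concentrations. GI50: concentration for 50% inhibition of growth. The concentration for full growth arrest is given as TGI.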

Turning to `C[N+](C)(CCNc1ccc(NCC[N+](C)(C)Cc2ccc([N+](=O)[O-])cc2)c2c1C(=O)c1c(O)ccc(O)c1C2=O)Cc1ccc([N+](=O)[O-])cc1`, the TGI in the assay with UACC-62 melanoma, in the assay on SNB-75 CNS, with LOX IMVI melanoma, in the assay with NCI-H23 lung, in the assay with SF-268 CNS and with SF-539 CNS was over 50 µM each time. In addition, the TGI in the assay with CCRF-CEM leukemia, in the assay with A498 renal and in the assay on OVCAR-8 ovarian was over 50 µM throughout.

On to `CO[C@@]12C[C@H](CNC(=O)c3ccc[nH]3)O[C@@H]1NC(=O)N2`, for which the TGI with UACC-62 melanoma, in the assay with SNB-75 CNS, in the assay with LOX IMVI melanoma, in the assay on NCI-H23 lung, in the assay with SF-268 CNS and in the assay with SF-539 CNS was over 100 µM in each case. The TGI with A498 renal, with OVCAR-8 ovarian and in the assay with MCF7 breast was over 100 µM throughout.

`COC1OC2COC(=O)c3cc(O)c(O)c(O)c3-c3c(cc(O)c(O)c3O)C(=O)OC2C(O)C1O` (stereo not drawn): the TGI with UACC-62 melanoma was 47.1 µM; with SNB-75 CNS, over 100 µM; with LOX IMVI melanoma it was 60 µM; in the assay with NCI-H23 lung, over 100 µM; in the assay with SF-268 CNS, over 100 µM; with SF-539 CNS, over 100 µM. Also, the TGI with CCRF-CEM leukemia, in the assay on OVCAR-8 ovarian and with MCF7 breast was over 100 µM throughout.

Consider `CN(C)C(=O)C(F)(F)C(c1ccccc1Br)C1C(=O)N(C)C(=O)N(C)C1=O` (stereo not drawn), for which the TGI with UACC-62 melanoma, in the assay with SNB-75 CNS, in the assay with LOX IMVI melanoma, in the assay on NCI-H23 lung, in the assay on SF-268 CNS and with CCRF-CEM leukemia was over 100 µM in each case. For the same compound, the TGI with A498 renal, with OVCAR-8 ovarian and in the assay on MCF7 breast was over 100 µM each time.

Regarding `Cc1sc(/N=C/C2=C(O)CC(C)(C)CC2=O)nc1-c1ccccc1`, the TGI in the assay on UACC-62 melanoma, in the assay with SNB-75 CNS, with LOX IMVI melanoma, with NCI-H23 lung, with SF-268 CNS and in the assay with SF-539 CNS was over 100 µM in each case. Besides, the TGI with CCRF-CEM leukemia, in the assay on OVCAR-8 ovarian and with MCF7 breast was over 100 µM each time.

For `CNC(=S)N/N=C/C(C)=N/NC(=S)NC`, the TGI in the assay with UACC-62 melanoma, in the assay with LOX IMVI melanoma, in the assay on NCI-H23 lung, in the assay on SF-268 CNS, in the assay on SF-539 CNS and in the assay with A498 renal was over 100 µM each time.

For the compound `C/C(=C\C(=O)Nc1ccc2n[nH]nc2c1)Nc1ccc2n[nH]nc2c1`, the TGI in the assay on UACC-62 melanoma, in the assay with SNB-75 CNS, in the assay on LOX IMVI melanoma, in the assay with NCI-H23 lung, in the assay with SF-268 CNS and in the assay with SF-539 CNS was over 100 µM each time. In addition, the TGI with CCRF-CEM leukemia, with A498 renal and in the assay with OVCAR-8 ovarian was over 100 µM throughout.

Regarding `CCOC(=O)C(C)c1nc2cc(F)c(F)cc2[nH]c1=O` (stereo not drawn), the TGI with UACC-62 melanoma, in the assay with SNB-75 CNS, in the assay with LOX IMVI melanoma, in the assay on NCI-H23 lung, in the assay with SF-268 CNS and with SF-539 CNS was over 100 µM throughout. Moreover, the TGI with CCRF-CEM leukemia, in the assay with OVCAR-8 ovarian and in the assay on MCF7 breast was over 100 µM each time.

As for `O=C(C[N+]12CN3CN(CN(C3)C1)C2)c1ccc(-c2ccccc2)cc1`, the TGI in the assay with UACC-62 melanoma was 29.9 µM; in the assay on SNB-75 CNS it was 38.6 µM; in the assay on LOX IMVI melanoma, 30.6 µM; in the assay on NCI-H23 lung, 53.5 µM; in the assay with SF-268 CNS, 39.4 µM; in the assay with CCRF-CEM leukemia, 5.37 µM. In addition, the figures for the TGI with A498 renal and in the assay on OVCAR-8 ovarian were 44.4 µM and over 100 µM, respectively.

For `CCCCCCCCCCCC1N=C(N)N=C(N)N1c1cccc(Br)c1` (stereo not drawn), the GI50 with NCI-H23 lung was 1.18 µM; in the assay with SF-268 CNS it was 1.28 µM; with A498 renal it was 2.65 µM; in the assay on OVCAR-8 ovarian it was 1.73 µM. Also, the TGI was found to be 2.69 µM with NCI-H23 lung, 2.7 µM with SF-268 CNS, 11.3 µM with A498 renal and 3.31 µM in the assay on OVCAR-8 ovarian.

Consider `Cc1ccc(S(=O)(=O)N/N=C2\C=CC3(CC2)C(=O)N(I)c2ccccc23)cc1` (stereo not drawn), for which the TGI with UACC-62 melanoma, in the assay on SNB-75 CNS, with LOX IMVI melanoma, with NCI-H23 lung, with SF-268 CNS and with SF-539 CNS was over 100 µM in each case. Besides, the TGI in the assay with CCRF-CEM leukemia, in the assay with A498 renal and in the assay with OVCAR-8 ovarian was over 100 µM each time.

On to `S=C(NCc1ccccn1)N/N=C/c1ccccn1`, for which the TGI with UACC-62 melanoma was 4.12 µM; with SNB-75 CNS it was over 100 µM; with LOX IMVI melanoma, 33.3 µM; in the assay on SF-268 CNS, over 100 µM; with SF-539 CNS, 0.396 µM; in the assay with CCRF-CEM leukemia, under 0.011 µM. Besides, the TGI with OVCAR-8 ovarian and in the assay on MCF7 breast was over 100 µM throughout.

For the compound `CC(=O)N[C@@H](Cc1ccc(O)cn1)C(=O)NCc1ccc(Cl)cc1`, the TGI in the assay with UACC-62 melanoma, with LOX IMVI melanoma, in the assay with NCI-H23 lung, in the assay with SF-539 CNS, in the assay with CCRF-CEM leukemia and with A498 renal was over 100 µM in each case. Also, the TGI in the assay with OVCAR-8 ovarian and in the assay with MCF7 breast was over 100 µM each time.

In the case of `O=C1NC(N2CCCC(CO)C2)=N/C1=C\c1cccs1` (stereo not drawn), the TGI in the assay with UACC-62 melanoma, in the assay on SNB-75 CNS, in the assay with LOX IMVI melanoma, in the assay on NCI-H23 lung, in the assay on SF-268 CNS and in the assay with SF-539 CNS was over 100 µM each time. The TGI with CCRF-CEM leukemia, in the assay on OVCAR-8 ovarian and in the assay on MCF7 breast was over 100 µM throughout.

On to `Nc1nc(SCc2ccccc2Cl)c2ncn(C3OC(CO)C(O)C3O)c2n1` (stereo not drawn), for which the TGI is over 100 µM with UACC-62 melanoma; 98.2 µM with SNB-75 CNS; over 100 µM in the assay on LOX IMVI melanoma; over 100 µM in the assay on NCI-H23 lung; over 100 µM with SF-268 CNS; over 100 µM in the assay on SF-539 CNS. Further, the TGI in the assay on CCRF-CEM leukemia, in the assay with A498 renal and in the assay on OVCAR-8 ovarian was over 100 µM throughout.

Source of the values: PubChem BioAssay (NCI).
